Measurements as given in a melting point compilation (Tetko et al.; mined from patent text by program, amines drawn as free bases though some values may be those of a salt).

| melting point | SMILES |
| --- | --- |
| 273 to 274 °C | O=C(O)c1ccc(-c2nc(-c3c(F)c(F)c(F)c(F)c3F)cs2)cc1 |
| 145 °C | CCc1nc(C(C)(C)O)c(C(=O)OCc2oc(=O)oc2C)n1Cc1ccc(-c2ccccc2-c2nnnn2C(c2ccccc2)(c2ccccc2)c2ccccc2)cc1 |
| 118 °C | CCOC1=N[C@@H](CSCC)C(=O)N[C@@H]1Cc1ccccc1 |
| 150 to 152 °C | COc1nc2ccc(Br)cc2c2c1Cc1ccccc1-2 |
| 109 °C | COc1cc(C=O)c(OC)cc1Cl |
| 193 to 194 °C | C=CCSC(C(=O)NC(C)=O)C(c1ccccc1)(c1ccccc1)c1ccccc1 (stereo unspecified) |
| 168 to 169 °C | Cc1cccc(-c2n[nH]cc2-c2ccc(F)c(-c3cn(C)cn3)c2)n1 |
| 227 to 230 °C | CC(C)(C)c1cc2c(c(C(C)(C)C)c1)OP(Cl)Oc1c(cc(C(C)(C)C)cc1C(C)(C)C)C2 |
| 249 to 250 °C | C#CCN1CCN(CC(=O)N2c3ccccc3C(=O)Nc3cccnc32)CC1 |
| 158 to 159 °C | COc1ccc2[nH]c(-c3cc(C)c(O)c(C)c3)c(C)c2c1 |
| 62.6 to 63.5 °C | O=C(O)CCCCCCCCCC#CC#Cc1ccco1 |
| 259 °C | O=C(CN1CCOCC1)Nc1cccc2c1C(=O)c1c-2n[nH]c1-c1ccc(N2CCNCC2)cc1 |
| 92 to 93 °C | CCCCCCOc1cccc2c(OCCCCCC)cccc12 |
| 162 to 165 °C | CCOC(=O)C=Cc1ccc(Cl)cc1N(CC(=O)c1ccc(Cl)cc1)S(=O)(=O)c1ccc(C)cc1 |
| 73 to 76 °C | CCOC(=O)c1cn(-c2nccs2)c2nc(N3C[C@@H](NC)[C@H](OC)C3)ccc2c1=O (relative stereo) |
| 68 to 70 °C | Cc1occc1S(=O)(=O)C(C)(Cc1ccccc1)C(=O)NO (stereo unspecified) |
| 137 to 141 °C | CC(C)(C)c1cc(C(C)(C)C)c(=O)c2nc3ccccc3sc1-2 |

| melting point | SMILES |
| --- | --- |
| 89 to 90 °C | O=C(CCCO)c1ccc(CCNS(=O)(=O)c2ccccc2)cc1 |
| 233 to 257 °C | CNC(=O)c1ccc(C=CC(=O)NCC(=O)N(C)c2ccc(Cl)c(COc3cccc4c(OCC(=O)O)cc(C)nc34)c2Cl)cc1 |
| 234 °C | CC(C)(C)c1cc(-c2cc(C(C)(C)C)cc(-n3nc4ccccc4n3)c2O)c(O)c(-n2nc3ccccc3n2)c1 |
| 247 to 250 °C | COc1cc2c(cc1/C=C/CCO)oc1cc(-c3ccccc3Cl)c3c(c12)C(=O)NC3=O |
| 144 °C | Cc1nc(C(F)F)c(C(=O)Nc2ccccc2-c2ccc(Cl)cc2)s1 |
| 114 to 116 °C | CCCCOc1ccc2c(c1)C(N(C)S(C)(=O)=O)=CC(C)(C)O2 |
| 120 to 121 °C | O=C(COc1cc(C(=O)O)c(O)c2ccccc12)c1ccccc1 |
| 108 to 112 °C | CC1OC(=O)N(C(=O)NCCCN2CCC(c3ccc(F)cc3)CC2)C1c1ccc(F)c(F)c1 (stereo unspecified) |
| 185 °C | COc1ccc2c(c1)Sc1c(cc(OC)c(O)c1Br)N2 |
| 174 °C | Cn1c(C(F)(F)F)cc(=O)n(-c2cc(Oc3ccc4cc(O)ccc4c3)c(C#N)cc2F)c1=O |
| 114 to 116 °C | N#CCCN1CCN(C(c2ccccc2)c2ccccn2)CC1 (stereo unspecified) |
| 166 to 168 °C | O=C(NCCCl)NC1OC(CO)C(O)C1O (stereo unspecified) |
| 149 to 150 °C | O=S1(=O)N=C(c2cccc(Cl)c2)c2ccccc21 |
| 271 °C | Cc1ccc(N2C(=O)C(O)=C(C(=O)c3ccc(C(C)C)cc3)C2c2ccc(C(C)C)cc2)nn1 (stereo unspecified) |
| 189 to 190 °C | CC(C)c1cccc(N2CCN(c3cccc(C(=O)O)c3)C2=O)c1 |
| 253 to 257 °C | CC(C)(C)c1cc(NC(=O)c2cccc(C(=O)O)c2)cc(C(C)(C)C)c1O |

| SMILES | melting point |
| --- | --- |
| Nc1cccc(NC(=O)NC2N=C(c3ccccc3F)c3ccccc3N(CC(=O)N3CC4CCC(CC4)C3)C2=O)c1 (racemic) | > 250 °C |
| O=C1NCCN1CC#CCN1CCCC1 | 71 to 75 °C |
| CN1CC(CNC(=S)NC(=O)c2ccccc2)CC2c3cccc4[nH]cc(c34)CC21 (stereo unspecified) | 153 to 155 °C |
